Source: patent US20220249463A1, “METHODS OF ALTERING CARDIAC REMODELING USING COMPOUNDS THAT PROMOTE GLUCOSE OXIDATION” (IMBRIA PHARMACEUTICALS, INC., priority 2019, published 2022)

Assay: Stability of CV-8972 in aqueous solution at different concentrations and pH
Format: physicochemical
Protocol: The stability of CV-8972 was analyzed. Aqueous samples containing CV-8972 at different concentrations and pH were incubated for various periods and analyzed.
Form A of CV-8972 were analyzed for stability in aqueous solution. Aqueous samples containing CV-8972 at different concentrations and pH were incubated for various periods and analyzed.

[1] = 289-MBA-15-A 2 mg/mL pH 6 (Form B), 22 hrs, pH 6.7
[2] = 289-MBA-15-A 2 mg/mL pH 7 (Form B), 0 hrs, pH 6.5
[3] = 289-MBA-15-A 2 mg/mL pH 7 (Form B), 1 hrs, pH 6.6
[4] = 289-MBA-15-A 2 mg/mL pH 7 (Form B), 4 hrs, pH 6.5
[5] = 289-MBA-15-A 10 mg/mL pH 6 (Form B), 0 hrs, pH 6
[6] = 289-MBA-15-A 10 mg/mL pH 6 (Form B), 1 hrs, pH 6.1
[7] = 289-MBA-15-A 10 mg/mL pH 6 (Form B), 4 hrs, pH 6
[8] = 289-MBA-15-A 10 mg/mL pH 6 (Form B), 6 hrs, pH 5.9
[9] = 289-MBA-15-A 10 mg/mL pH 6 (Form B), 22 hrs, pH 5.9
[10] = 289-MBA-15-A 10 mg/mL pH 7 (Form B), 0 hrs, pH 7.4
[11] = 289-MBA-15-A 10 mg/mL pH 7 (Form B), 1 hrs, pH 7.4
[12] = 289-MBA-15-A 10 mg/mL pH 7 (Form B), 4 hrs, pH 7.4
[13] = 289-MBA-15-A 10 mg/mL pH 7 (Form B), 6 hrs, pH 7.3
[14] = Form A, aqueous, 4.2 mg/mL, Initial pH = 2.3, 0 hrs
[15] = Form A, aqueous, 4.2 mg/mL, Initial pH = 2.3, 1 hrs
[16] = Form A, aqueous, 4.2 mg/mL, Initial pH = 2.3, 2 hrs
[17] = Form A, aqueous, 4.2 mg/mL, Initial pH = 2.3, 6 hrs
[18] = Form A, aqueous, 12.5 mg/mL, Initial pH = 2.1, 0 hrs
[19] = Form A, aqueous, 12.5 mg/mL, Initial pH = 2.1, 1 hrs
[20] = Form A, aqueous, 12.5 mg/mL, Initial pH = 2.1, 2 hrs
[21] = Form A, aqueous, 12.5 mg/mL, Initial pH = 2.1, 6 hrs
[22] = Form A, aqueous, 21 mg/mL, Initial pH = 2.0, 0 hrs
[23] = Form A, aqueous, 21 mg/mL, Initial pH = 2.0, 1 hrs
[24] = Form A, aqueous, 21 mg/mL, Initial pH = 2.0, 2 hrs
[25] = Form A, aqueous, 21 mg/mL, Initial pH = 2.0, 6 hrs

COc1ccc(CN2CCN(CCOC(=O)c3cccnc3)CC2)c(OC)c1OC [CV-8972, 2-(4-(2,3,4-trimethoxybenzyl)piperazin-1-yl)ethyl nicotinate]
Retention Time 2.2 [1]: 7.72
Retention Time 2.6 [1]: 1.13
Retention Time 4.2 [1]: 0.86
Retention Time 4.7 [1]: 1.14
Retention Time 5.6 [1]: 89.15
Retention Time 2.2 [2]: 1.62
Retention Time 4.2 [2]: 0.9
Retention Time 5.6 [2]: 97.48
Decrease in purity of CV-8972 between time points [3]: 2.02
Retention Time 2.2 [3]: 3.16
Retention Time 4.2 [3]: 0.89
Retention Time 4.7 [3]: 0.49
Retention Time 5.6 [3]: 95.46
Decrease in purity of CV-8972 between time points [4]: 1.54
Retention Time 2.2 [4]: 4.27
Retention Time 2.6 [4]: 0.53
Retention Time 4.2 [4]: 0.66
Retention Time 4.7 [4]: 0.62
Retention Time 5.6 [4]: 93.92
Retention Time 2.2 [5]: 3.3
Retention Time 2.6 [5]: 0.6
Retention Time 4.2 [5]: 0.26
Retention Time 4.7 [5]: 0.48
Retention Time 5.6 [5]: 95.36
Decrease in purity of CV-8972 between time points [6]: 0.55
Retention Time 2.2 [6]: 3.76
Retention Time 2.6 [6]: 0.65
Retention Time 4.2 [6]: 0.25
Retention Time 4.7 [6]: 0.53
Retention Time 5.6 [6]: 94.81
Decrease in purity of CV-8972 between time points [7]: 0.12
Retention Time 2.2 [7]: 3.97
Retention Time 2.6 [7]: 0.59
Retention Time 4.2 [7]: 0.19
Retention Time 4.7 [7]: 0.56
Retention Time 5.6 [7]: 94.69
Decrease in purity of CV-8972 between time points [8]: 0.3
Retention Time 2.2 [8]: 4.3
Retention Time 2.6 [8]: 0.54
Retention Time 4.2 [8]: 0.17
Retention Time 4.7 [8]: 0.6
Retention Time 5.6 [8]: 94.39
Decrease in purity of CV-8972 between time points [9]: 0.46
Retention Time 2.2 [9]: 4.53
Retention Time 2.6 [9]: 0.69
Retention Time 4.2 [9]: 0.19
Retention Time 4.7 [9]: 0.65
Retention Time 5.6 [9]: 93.93
Retention Time 2.2 [10]: 6.2
Retention Time 2.6 [10]: 1.16
Retention Time 4.2 [10]: 0.27
Retention Time 4.7 [10]: 0.87
Retention Time 5.6 [10]: 91.5
Decrease in purity of CV-8972 between time points [11]: 5.32
Retention Time 2.2 [11]: 10.47
Retention Time 2.6 [11]: 1.65
Retention Time 4.2 [11]: 0.25
Retention Time 4.7 [11]: 1.44
Retention Time 5.6 [11]: 86.18
Decrease in purity of CV-8972 between time points [12]: 3.82
Retention Time 2.2 [12]: 13.64
Retention Time 2.6 [12]: 1.93
Retention Time 4.2 [12]: 0.19
Retention Time 4.7 [12]: 1.89
Retention Time 5.6 [12]: 82.36
Decrease in purity of CV-8972 between time points [13]: 2.99
Retention Time 2.2 [13]: 15.66
Retention Time 2.6 [13]: 2.57
Retention Time 4.2 [13]: 0.2
Retention Time 4.7 [13]: 0.2
Retention Time 5.6 [13]: 79.37
Retention Time 3.9 [14]: 5.35
Retention Time 5.4 [14]: 94.65
% change from t0 of RT 5.4 [15]: 1.41%
Retention Time 3.9 [15]: 4.02
Retention Time 5.4 [15]: 95.98
% change from t0 of RT 5.4 [16]: −3.66%
Amount of peak at retention time 1.9 [16]: 3.72
Retention Time 3.9 [16]: 5.09
Retention Time 5.4 [16]: 91.19
% change from t0 of RT 5.4 [17]: −10.21%
Amount of peak at retention time 1.9 [17]: 9.71
Retention Time 3.9 [17]: 5.3
Retention Time 5.4 [17]: 84.99
Retention Time 3.9 [18]: 1.79
Retention Time 5.4 [18]: 98.21
% change from t0 of RT 5.4 [19]: −1.02%
Amount of peak at retention time 1.9 [19]: 1.38
Retention Time 3.9 [19]: 1.41
Retention Time 5.4 [19]: 97.21
% change from t0 of RT 5.4 [20]: −2.35%
Amount of peak at retention time 1.9 [20]: 2.43
Retention Time 3.9 [20]: 1.67
Retention Time 5.4 [20]: 95.9
% change from t0 of RT 5.4 [21]: −8.79%
Retention Time 2.2 [21]: 1.04
Retention Time 3.9 [21]: 1.74
Retention Time 5.4 [21]: 89.58
Retention Time 3.9 [22]: 1.12
Retention Time 5.4 [22]: 98.88
% change from t0 of RT 5.4 [23]: −0.86%
Amount of peak at retention time 1.9 [23]: 1.03
Retention Time 3.9 [23]: 0.94
Retention Time 5.4 [23]: 98.03
% change from t0 of RT 5.4 [24]: −1.79%
Amount of peak at retention time 1.9 [24]: 1.9
Retention Time 3.9 [24]: 1
Retention Time 5.4 [24]: 97.11
% change from t0 of RT 5.4 [25]: −6.78%
Retention Time 2.2 [25]: 0.83
Retention Time 3.9 [25]: 0.96
Retention Time 5.4 [25]: 92.18
